According to PubChem BioAssay (NCI):
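Each compound was tested at five concentrations against cells in 96-well plates for 48 hours. Abbreviation: GI50, concentration required for 50% inhibition of growth. The concentration for full growth arrest is given as TGI.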

Columns and labels:
Test in all cases: NCI tumour cell line growth inhibition, 48 h
[1] = tested on: SK-MEL-2 melanoma
[2] = tested on: UO-31 renal
[3] = tested on: A498 renal
[4] = tested on: HOP-92 NSCLC
[5] = tested on: IGROV1 ovarian
[6] = tested on: NCI/ADR-RES ovarian
[7] = tested on: HCC-2998 colon
[8] = tested on: BT-549 breast
[9] = tested on: PC-3 prostate
[10] = tested on: SK-MEL-5 melanoma
[11] = tested on: MDA-MB-231 breast
[12] = tested on: MALME-3M melanoma
[13] = tested on: SF-268 CNS
[14] = tested on: UACC-62 melanoma
[15] = tested on: 786-0 renal
[16] = tested on: RPMI-8226 leukemia
[17] = tested on: KM12 colon
[18] = tested on: MDA-MB-435
[19] = tested on: OVCAR-4 ovarian
[20] = tested on: TK-10 renal
[21] = tested on: OVCAR-8 ovarian
[22] = tested on: MCF7 breast
[23] = tested on: SK-OV-3 ovarian
[24] = tested on: T-47D breast
[25] = tested on: COLO 205 colon
[26] = tested on: M14 melanoma
[27] = tested on: ACHN renal
[28] = tested on: OVCAR-3 ovarian
[29] = tested on: SK-MEL-28 melanoma
[30] = tested on: DU-145 prostate
[31] = tested on: NCI-H522 lung
[32] = tested on: U251 CNS
[33] = tested on: MOLT-4 leukemia
[34] = tested on: HL-60(TB) leukemia
[35] = tested on: NCI-H23 lung
[36] = tested on: K-562 leukemia
[37] = tested on: HCT-15 colon
[38] = tested on: SF-295 CNS
[39] = tested on: UACC-257 melanoma
[40] = tested on: RXF 393 renal
[41] = tested on: CAKI-1 renal
[42] = tested on: NCI-H460 lung
[43] = tested on: SNB-19 CNS
[44] = tested on: SR leukemia
[45] = tested on: HOP-62 NSCLC
[46] = tested on: SF-539 CNS
[47] = tested on: EKVX NSCLC
[48] = tested on: HCT-116 colon
[49] = tested on: A549 NSCLC
[50] = tested on: HS 578T breast
[51] = tested on: CCRF-CEM leukemia
[52] = tested on: OVCAR-5 ovarian
[53] = tested on: SN12C renal
[54] = tested on: LOX IMVI melanoma
[55] = tested on: NCI-H226 lung
[56] = tested on: SW-620 colon
[57] = tested on: SNB-75 CNS

SMILES: C[C@H]1CCC/C=C/[C@@H]2C[C@H](O)C[C@H]2[C@H](O)[C@@H](S(=O)C[C@@H](N)C(=O)O)CC(=O)O1 (stereo partly drawn)
- GI50 [1]: 1290 nM
- GI50 [2]: 37 nM
- TGI [2]: 1620 nM
- GI50 [3]: 30.9 nM
- TGI [3]: 149 nM
- GI50 [4]: 42.8 nM
- TGI [4]: 1650 nM
- GI50 [5]: 238 nM
- TGI [5]: 19100 nM
- GI50 [6]: < 16.5 nM
- TGI [6]: 384 nM
- GI50 [7]: 30.3 nM
- TGI [7]: 256 nM
- GI50 [8]: 86.2 nM
- TGI [8]: > 100000 nM
- TGI [9]: > 26200 nM
- GI50 [10]: 20.9 nM
- TGI [10]: 107 nM
- GI50 [11]: 25.1 nM
- TGI [11]: 52.8 nM
- TGI [12]: 25.7 nM
- GI50 [13]: 20.7 nM
- TGI [13]: > 19900 nM
- GI50 [14]: 29.7 nM
- TGI [14]: > 100000 nM
- GI50 [15]: < 18.1 nM
- GI50 [16]: 395 nM
- TGI [16]: > 95300 nM
- GI50 [17]: < 14 nM
- TGI [17]: 60.5 nM
- GI50 [18]: 48 nM
- TGI [18]: > 100000 nM
- GI50 [19]: 44.5 nM
- TGI [19]: > 75000 nM
- GI50 [20]: 199 nM
- GI50 [21]: 32.3 nM
- TGI [21]: 2840 nM
- GI50 [22]: 30.3 nM
- GI50 [23]: 117 nM
- TGI [23]: > 82800 nM
- GI50 [24]: 244 nM
- TGI [24]: 992 nM
- GI50 [25]: 14.4 nM
- TGI [25]: 29.3 nM
- GI50 [26]: 42.9 nM
- TGI [26]: > 100000 nM
- GI50 [27]: 83.3 nM
- TGI [27]: 669 nM
- GI50 [28]: 42.5 nM
- GI50 [29]: 29.1 nM
- TGI [29]: > 100000 nM
- GI50 [30]: 434 nM
- TGI [30]: > 100000 nM
- GI50 [31]: 175 nM
- TGI [31]: 870 nM
- GI50 [32]: 70.9 nM
- TGI [32]: > 100000 nM
- GI50 [33]: 46.4 nM
- GI50 [34]: 142 nM
- GI50 [35]: 86.2 nM
- TGI [35]: 8130 nM
- GI50 [36]: 884 nM
- TGI [36]: > 100000 nM
- GI50 [37]: 137 nM
- TGI [37]: 2260 nM
- GI50 [38]: 109 nM
- TGI [38]: > 100000 nM
- GI50 [39]: < 18.2 nM
- TGI [39]: > 100000 nM
- GI50 [40]: 20200 nM
- TGI [40]: 86700 nM
- GI50 [41]: 210 nM
- GI50 [42]: 245 nM
- TGI [42]: > 100000 nM
- TGI [43]: > 100000 nM
- GI50 [44]: 82 nM
- GI50 [45]: 241 nM
- TGI [45]: > 100000 nM
- GI50 [46]: 35.8 nM
- TGI [46]: > 100000 nM
- GI50 [47]: 84.2 nM
- TGI [47]: > 52300 nM
- GI50 [48]: 32.5 nM
- TGI [48]: 1690 nM
- TGI [49]: > 100000 nM
- GI50 [50]: 15.2 nM
- TGI [50]: > 100000 nM
- GI50 [51]: 50.8 nM
- TGI [51]: 50200 nM
- GI50 [52]: > 100000 nM
- TGI [52]: > 100000 nM
- GI50 [53]: 156 nM
- TGI [53]: 1830 nM
- GI50 [54]: 20.3 nM
- TGI [54]: 63.6 nM
- GI50 [55]: 19.3 nM
- GI50 [56]: 53.3 nM
- TGI [57]: 19.4 nM
